From ChEMBL document CHEMBL1201862, “PubChem BioAssay data set” (2004) come the findings set out here.

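Five concentrations, 48 hours, 96-well plates. Here, GI50 denotes the concentration required for 50% inhibition of growth.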 Activity calls are given as the source filed them. Cut-off read from the data, not from the text of the source: active = GI50 up to about 1.1 µM and inactive = higher.

Among the test systems are MDA-MB-231; OVCAR-8; SF-295; NCI-H23; RXF 393; NCI-H226; SK-MEL-2; NCI-H522; SNB-19; NCI/ADR-RES; UACC-62; MDA-N; SK-MEL-28; EKVX; Malme-3M; MOLT-4; RPMI-8226; HL-60; SR; SNB-75.
Test in all cases: NCI tumour cell line growth inhibition, 48 h

`CC1=C[C@H](O)[C@@]2(C)[C@@H]([C@@H]1C)[C@H]1CC[C@@H]3[C@@]4(C)CC[C@H](O)C(C)(C)[C@@H]4CC[C@@]3(C)[C@]1(C)C[C@@H]2O`: the GI50 is 20.3 µM (inactive) with MDA-MB-231; 20.6 µM (inactive) in the assay with OVCAR-8; 16.1 µM (inactive) in the assay on SF-295; 23.1 µM (inactive) in the assay on NCI-H23; 17.6 µM (inactive) in the assay with RXF 393; 23.1 µM (inactive) with NCI-H226. Besides, the GI50 in the assay on SK-MEL-2 is 23.3 µM (inactive); in the assay on NCI-H522 it was 17.9 µM (inactive); in the assay on SNB-19, 15.8 µM (inactive); in the assay on NCI/ADR-RES, 19.8 µM (inactive); in the assay with UACC-62, 18.8 µM (inactive); in the assay on MDA-N, 15.8 µM (inactive). For the same compound, the GI50 in the assay on SK-MEL-28 is 18.3 µM (inactive); in the assay with EKVX it was 12.4 µM (inactive); in the assay with Malme-3M, 20.6 µM (inactive); in the assay on MOLT-4, 13.7 µM (inactive).

Take `COC1OC(C)/C(=N/O)C2OC(C)(C)OC12` (stereo not given): the GI50 in the assay with MDA-MB-231, in the assay with OVCAR-8, in the assay on SF-295, in the assay with NCI-H23, with RXF 393 and in the assay on NCI-H226 was > 100 µM (inactive) throughout. In addition, the GI50 in the assay on RPMI-8226, in the assay with NCI-H522, with SNB-19, in the assay on NCI/ADR-RES, in the assay on UACC-62 and in the assay on SK-MEL-28 was > 100 µM (inactive) each time. Besides, the GI50 in the assay with HL-60, in the assay on EKVX, in the assay on Malme-3M, in the assay with SR and in the assay with MOLT-4 was > 100 µM (inactive) each time.

For the compound `C[N+](C)=C/C=C(\Cl)c1ccc2ccccc2c1`, the GI50 was 14.6 µM (inactive) with MDA-MB-231; 9.66 µM (inactive) with OVCAR-8; 16.9 µM (inactive) in the assay on SF-295; 5.98 µM (inactive) in the assay on NCI-H23; 16.5 µM (inactive) in the assay on RXF 393; 17.3 µM (inactive) in the assay with NCI-H226. In addition, the GI50 in the assay with SK-MEL-2 is 25.2 µM (inactive); with RPMI-8226 it was 2.89 µM (inactive); in the assay on SNB-75, 21.5 µM (inactive); with NCI-H522 it was 21.4 µM (inactive); in the assay with SNB-19, 21.7 µM (inactive); with NCI/ADR-RES, 6.87 µM (inactive). The GI50 in the assay with UACC-62 is 15.1 µM (inactive); in the assay on SK-MEL-28, 3.61 µM (inactive); in the assay with HL-60, 6.52 µM (inactive); in the assay on EKVX, 24.5 µM (inactive); in the assay with Malme-3M, 11.8 µM (inactive); with SR, 1.39 µM (inactive). Also, the GI50 in the assay with MOLT-4 is 1.54 µM (inactive).

As to `CN1C2CCC1CC(=CCOC(c1ccc(F)cc1)c1ccc(F)cc1)C2`, the GI50 with MDA-MB-231 was 17.9 µM (inactive); with OVCAR-8, 17.1 µM (inactive); with SF-295, 16.9 µM (inactive); in the assay with NCI-H23, 17.7 µM (inactive); in the assay on RXF 393 it was 14.5 µM (inactive); in the assay with NCI-H226, 20.3 µM (inactive). Further, the GI50 with SK-MEL-2 was 19.1 µM (inactive); with RPMI-8226, 15.3 µM (inactive); in the assay on SNB-75, 13.8 µM (inactive); with NCI-H522, 11.6 µM (inactive); in the assay with SNB-19, 21.2 µM (inactive); in the assay with NCI/ADR-RES, 23.3 µM (inactive). The GI50 with UACC-62 is 15.1 µM (inactive); with SK-MEL-28, 18.9 µM (inactive); in the assay with HL-60, 13.6 µM (inactive); with EKVX, 18.8 µM (inactive); with Malme-3M it was 13.2 µM (inactive); with SR, 15.8 µM (inactive). The GI50 with MOLT-4 was 15 µM (inactive).

As for `CCc1ccc(NC(=O)NC(=O)c2ccccc2[N+](=O)[O-])cc1Oc1ncc(Cl)cn1`, the GI50 is 0.0376 µM (active) in the assay on MDA-MB-231; 0.0264 µM (active) in the assay with OVCAR-8; < 0.0222 µM (active) with SF-295; < 0.0174 µM (active) in the assay on NCI-H23; < 0.01 µM (active) in the assay on RXF 393; 0.0151 µM (active) with NCI-H226. Also, the GI50 in the assay on SK-MEL-2 was < 0.01 µM (active); in the assay with RPMI-8226, < 0.0159 µM (active); in the assay with SNB-75, < 0.01 µM (active); in the assay with NCI-H522, 0.0135 µM (active); in the assay with SNB-19, 0.0495 µM (active); in the assay with UACC-62, < 0.0177 µM (active). Further, the GI50 was < 0.01 µM (active) with MDA-N; 0.37 µM (active) in the assay with SK-MEL-28; < 0.013 µM (active) with HL-60; 7.06 µM (inactive) in the assay on EKVX; < 0.01 µM (active) in the assay with Malme-3M; 0.0247 µM (active) in the assay on SR. Further, the GI50 in the assay with MOLT-4 is 0.0247 µM (active).

As for `COc1ccc(-c2c(C(C)=O)c(-c3ccccc3)n(C3OC(CO)C(O)C(O)C3O)c(=S)c2C#N)cc1` (stereo not given), the GI50 in the assay with MDA-MB-231, in the assay on OVCAR-8, with SF-295, in the assay with NCI-H23, in the assay with RXF 393 and in the assay with NCI-H226 was > 100 µM (inactive) each time. Also, the GI50 in the assay with NCI-H522 is > 100 µM (inactive); in the assay with SNB-19 it was > 100 µM (inactive); with NCI/ADR-RES it was > 100 µM (inactive); with UACC-62 it was 43.6 µM (inactive); in the assay on MDA-N, > 100 µM (inactive); in the assay on SK-MEL-28, > 100 µM (inactive). Further, the GI50 with HL-60, in the assay on EKVX, in the assay on Malme-3M and in the assay with MOLT-4 was > 100 µM (inactive) throughout.

As for `O=C(Nc1ccccn1)/C(=C\C(=O)c1ccc(Cl)cc1)Nc1ccccc1`, the GI50 with MDA-MB-231, in the assay with OVCAR-8, in the assay on SF-295, in the assay with NCI-H23, in the assay with RXF 393 and in the assay with RPMI-8226 was > 10 µM (inactive) each time. Moreover, the GI50 in the assay with SNB-75 was 5.68 µM (inactive); in the assay with UACC-62, > 10 µM (inactive); in the assay on MDA-N, > 10 µM (inactive); in the assay with SK-MEL-28, > 10 µM (inactive); in the assay on HL-60, > 10 µM (inactive); in the assay on EKVX it was > 10 µM (inactive). The GI50 with Malme-3M, with SR and in the assay on MOLT-4 was > 10 µM (inactive) throughout.

As to `CC#CS(=O)(=O)c1ccccc1`, the GI50 in the assay on MDA-MB-231 is 10.6 µM (inactive); in the assay with OVCAR-8, 3.02 µM (inactive); with SF-295, 3.56 µM (inactive); in the assay on NCI-H23, 5.2 µM (inactive); in the assay with RXF 393, 14.2 µM (inactive); with NCI-H226, 9.91 µM (inactive). The GI50 with SK-MEL-2 was 14.2 µM (inactive); in the assay on SNB-75, 3.01 µM (inactive); in the assay on NCI-H522 it was 1.62 µM (inactive); with SNB-19, 14.2 µM (inactive); in the assay on NCI/ADR-RES, 10.4 µM (inactive); in the assay on UACC-62, 3.24 µM (inactive). Moreover, the GI50 was 3.13 µM (inactive) in the assay on SK-MEL-28; 1.8 µM (inactive) in the assay on HL-60; 18.6 µM (inactive) in the assay on EKVX; 2.88 µM (inactive) in the assay on Malme-3M; 0.253 µM (active) in the assay on MOLT-4.

Turning to `O=c1[nH]nc(-c2ccccc2)c2[nH]c3c4ccccc4ccc3c12`, the GI50 was 0.461 µM (active) with SF-295; 2.15 µM (inactive) in the assay on NCI-H23; 1.58 µM (inactive) in the assay with RXF 393; 4.14 µM (inactive) in the assay on NCI-H226; 7.62 µM (inactive) in the assay on SK-MEL-2; 0.746 µM (active) in the assay with RPMI-8226. Moreover, the GI50 was 3.93 µM (inactive) in the assay with SNB-75; 0.753 µM (active) with NCI-H522; 1.62 µM (inactive) in the assay on SNB-19; 0.379 µM (active) with NCI/ADR-RES; 1.2 µM (inactive) with UACC-62; 0.199 µM (active) in the assay with MDA-N. Moreover, the GI50 with HL-60 was 0.548 µM (active); in the assay with EKVX, 3.44 µM (inactive); with Malme-3M it was 4.83 µM (inactive); in the assay with SR, 0.251 µM (active); with MOLT-4 it was 1.64 µM (inactive).

Turning to `CC1(C)/C(=N\Nc2ccc([N+](=O)[O-])cc2[N+](=O)[O-])C2CCC1C2` (stereo not given), the GI50 in the assay with OVCAR-8 was > 100 µM (inactive); in the assay on SF-295, 15.2 µM (inactive); with NCI-H23, > 100 µM (inactive); in the assay on NCI-H226, > 100 µM (inactive); in the assay on SK-MEL-2, > 100 µM (inactive); in the assay on RPMI-8226, > 100 µM (inactive). Also, the GI50 was 3.34 µM (inactive) in the assay on SNB-75; > 100 µM (inactive) in the assay with NCI-H522; > 100 µM (inactive) with SNB-19; > 100 µM (inactive) in the assay with NCI/ADR-RES; > 100 µM (inactive) in the assay with UACC-62; > 100 µM (inactive) with MDA-N. The GI50 in the assay with SK-MEL-28, in the assay on HL-60, with EKVX, in the assay with Malme-3M, in the assay with SR and in the assay on MOLT-4 was > 100 µM (inactive) in each case.

Regarding `CC(=O)OC(C)(C)/C=C/C(=O)[C@](C)(O)[C@H]1[C@H](O)C[C@@]2(C)[C@@H]3CC=C4[C@@H](C[C@H](O)C(=O)C4(C)C)[C@]3(CO)C(=O)C[C@]12C` [CUCURBITACIN A], the GI50 was 0.615 µM (active) in the assay with OVCAR-8; 0.314 µM (active) in the assay with SF-295; 0.536 µM (active) in the assay with NCI-H23; 0.208 µM (active) in the assay with RXF 393; 0.0762 µM (active) in the assay with NCI-H226; 0.1 µM (active) with SK-MEL-2. For the same compound, the GI50 was 0.0942 µM (active) with RPMI-8226; 0.131 µM (active) with SNB-75; 0.288 µM (active) in the assay on NCI-H522; 0.249 µM (active) in the assay with SNB-19; 0.543 µM (active) in the assay with UACC-62; 0.132 µM (active) in the assay on SK-MEL-28. Besides, the GI50 is 0.335 µM (active) in the assay on HL-60; 0.364 µM (active) in the assay on EKVX; 0.344 µM (active) in the assay with Malme-3M; 0.65 µM (active) with SR; 3.1 µM (inactive) with MOLT-4.
